The structures appear in SMILES notation.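 Protocol summary: plate cells (96-well), add compound at 5 concentrations, incubate 48 h, interpolate endpoints linearly. GI50: concentration for 50% inhibition of growth.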 Activity calls are given as the source filed them. Rule as the data show it: active = GI50 up to about 1.1 µM and inactive = higher. A value given as a limit tells only on which side of the number the result lay.

8 molecules from ChEMBL document CHEMBL1201862, “PubChem BioAssay data set” (2004) can be followed below.

Common to all, as to experiment: DTP human tumour cell line panel, 48 h
The subject of assay [1] is 786-0.
The subject of assay [2] is ACHN.
For assay [3], the system named is COLO 205.
The subject of assay [4] is HCT-15.
The test system of assay [5] is HL-60.
The test system of assay [6] is HT-29.
In assay [7] the test system is KM12.
Assay [8] concerns NCI-H522.
Assay [9] concerns OVCAR-4.
The subject of assay [10] is OVCAR-5.
Assay [11] relates to OVCAR-8.
In assay [12] the test system is SF-539.
In assay [13] the test system is SK-MEL-28.
Assay [14] deals with T47D.
Assay [15] has as its system TK-10.
The subject of assay [16] is U-251.
The test system of assay [17] is UACC-257.
The test system of assay [18] is CCRF-CEM.
Assay [19] relates to SNB-19.
In assay [20] the test system is UO-31.

Turning to `O=C1Nc2ccc(Br)cc2/C1=N/NC(=S)Nc1ccc([N+](=O)[O-])cc1`, the GI50 in assay [1] is 8.91 µM (inactive); in assay [2], 5.19 µM (inactive); in [3], 21.7 µM (inactive); in assay [4], 2.69 µM; in assay [5], 1.75 µM (inactive); in assay [6] it was 7.71 µM (inactive). Moreover, the GI50 in assay [7] was 5.94 µM (inactive); in assay [8], 9.79 µM (inactive); in assay [9], 6.11 µM (inactive); in [10], 13.2 µM (inactive); in assay [11] it was 6.37 µM (inactive); in [12], 20.2 µM (inactive). In addition, the GI50 in assay [13] was 11.1 µM (inactive); in assay [14], 7.45 µM (inactive); in assay [15] it was 14.5 µM (inactive); in assay [16] it was 7.13 µM (inactive); in assay [17], 14.4 µM (inactive).

For the molecule `Cc1ccc2nc(-c3ccc(-n4c(C)nc(=O)c(-c5ccc(F)cc5)c4C)cc3)sc2c1`, the GI50 is 13.6 µM (inactive) in assay [1]; 14.6 µM (inactive) in assay [2]; 13 µM (inactive) in assay [18]; 4.97 µM (inactive) in [3]; 12.4 µM in [4]; 11.4 µM (inactive) in assay [5]. Further, the GI50 was 13.2 µM (inactive) in assay [6]; 17.3 µM (inactive) in assay [7]; 15.1 µM (inactive) in assay [8]; 17.6 µM (inactive) in [9]; 19.3 µM (inactive) in [10]; 17.5 µM (inactive) in assay [11]. The GI50 in assay [13] was 20.8 µM (inactive); in assay [19] it was 14.8 µM (inactive); in assay [14], 3.3 µM (inactive); in [15], 16.1 µM (inactive); in assay [16], 15.5 µM (inactive); in assay [17], 16.1 µM (inactive). For the same molecule, the GI50 in assay [20] is 15 µM (inactive).

For the molecule `COc1cn2c(cc1=O)COc1ccc(-c3ccccc3)cc1-2`, the GI50 is > 88.1 µM (inactive) in assay [1]; 48.4 µM (inactive) in assay [2]; 56 µM (inactive) in assay [3]; 54.5 µM in assay [4]; 41.3 µM (inactive) in [5]; 45.4 µM (inactive) in [6]. Further, the GI50 in [7] was 52.1 µM (inactive); in assay [8] it was 27.9 µM (inactive); in assay [9] it was > 85.1 µM (inactive); in assay [10], > 96.2 µM (inactive); in [11], > 76.4 µM (inactive); in assay [13], > 100 µM (inactive). For the same molecule, the GI50 in assay [19] is 40 µM (inactive); in assay [14], 20.5 µM (inactive); in assay [15], 20 µM (inactive); in assay [16], 65.2 µM (inactive); in [17] it was 41 µM (inactive); in [20] it was 28.4 µM (inactive).

With `CC1CN=C(N(Cc2ccccc2)C(=O)Nc2ccc(Cl)c(Cl)c2)S1` (configuration not stated), the GI50 was 30.5 µM (inactive) in assay [1]; 12.6 µM (inactive) in [2]; > 10 µM (inactive) in [18]; 31.4 µM (inactive) in assay [3]; 15.7 µM in assay [4]; > 10 µM (inactive) in assay [5]. Moreover, the GI50 in assay [6] was 30.1 µM (inactive); in assay [7], 40.7 µM (inactive); in assay [9], 61.8 µM (inactive); in assay [10], 29.2 µM (inactive); in [11], 49.3 µM (inactive); in [12], 33.3 µM (inactive). The GI50 in [13] was 26.1 µM (inactive); in [19], 62.4 µM (inactive); in assay [14], 16.9 µM (inactive); in assay [15], 32.4 µM (inactive); in [16], 32.4 µM (inactive); in assay [17], 32.5 µM (inactive). Besides, in [20], the GI50 is 25.8 µM (inactive).

Consider `N#C/C(=C\NC(=S)c1ccncc1)c1nc2ccccc2s1`, for which the GI50 in [1] is > 100 µM (inactive); in [2], > 100 µM (inactive); in [3], > 100 µM (inactive); in assay [4], over 100 µM; in assay [5], > 100 µM (inactive); in assay [6], > 100 µM (inactive). The GI50 in assay [7], in assay [8], in assay [9], in [10], in assay [11] and in [12] was > 100 µM (inactive) in each case. For the same molecule, the GI50 in assay [13] was > 100 µM (inactive); in [19] it was > 100 µM (inactive); in [14] it was 37.9 µM (inactive); in [15], 65.2 µM (inactive); in [16], 98.4 µM (inactive); in assay [17] it was 30.9 µM (inactive). Besides, the GI50 in [20] was > 100 µM (inactive).

Consider `O=C1[C@@H]2Cc3c([nH]c4ccccc34)C(C3CCCCC3)N2C(=O)[C@@H]2CCCN12` (some centres not stated), for which the GI50 in [1] was 27.8 µM (inactive); in assay [2], 28.9 µM (inactive); in assay [3], 21.5 µM (inactive); in assay [4], 33.4 µM; in [5], 27.3 µM (inactive); in assay [6], 28.5 µM (inactive). Besides, the GI50 in assay [7] was 23.3 µM (inactive); in assay [8], 23 µM (inactive); in assay [9] it was 35.2 µM (inactive); in assay [10], 37.8 µM (inactive); in assay [11], 36.7 µM (inactive); in assay [13], 50.2 µM (inactive). For the same molecule, the GI50 in [19] is 39.9 µM (inactive); in assay [14], 60 µM (inactive); in assay [15] it was 35.6 µM (inactive); in assay [16], 33.8 µM (inactive); in assay [17] it was 29.2 µM (inactive); in assay [20], 32.3 µM (inactive).

As for `O=C(/C=C1\N=C(c2ccccc2)N(c2nc3ccc(Sc4ccccc4)cc3[nH]2)C1=O)/C=C/c1ccccc1`, the GI50 was 33.3 µM (inactive) in [1]; 52.7 µM (inactive) in [2]; 31.6 µM (inactive) in [18]; 16.5 µM (inactive) in assay [3]; 33.1 µM in assay [4]; 20.8 µM (inactive) in [5]. Further, the GI50 in [6] is 30.3 µM (inactive); in [7], 26.7 µM (inactive); in assay [8], 20.3 µM (inactive); in assay [9], 39.8 µM (inactive); in assay [10], 44 µM (inactive); in assay [11], 24.5 µM (inactive). Also, the GI50 was 46.5 µM (inactive) in assay [13]; 49 µM (inactive) in [19]; 22.6 µM (inactive) in [14]; 29.2 µM (inactive) in assay [15]; 27.7 µM (inactive) in assay [16]; 30.8 µM (inactive) in assay [17]. In assay [20], the GI50 is 53.3 µM (inactive).

On to `CN(C)c1ccc(/C=C(\NC(=O)c2ccccc2)C(=O)NCC(=O)O)cc1`, for which the GI50 in assay [1] is > 100 µM (inactive); in [2], > 100 µM (inactive); in assay [18], > 100 µM (inactive); in assay [3] it was > 100 µM (inactive); in [4] it was over 100 µM; in assay [5], 0.0755 µM (active). Besides, the GI50 in [6], in assay [7], in assay [8], in assay [10], in [11] and in assay [12] was > 100 µM (inactive) each time. For the same molecule, the GI50 in assay [13], in assay [19], in assay [14], in [16], in [17] and in assay [20] was > 100 µM (inactive) throughout.
